How the values were obtained:
[1] = target: T1, human type 1 17β-hydroxysteroid dehydrogenase (Homo sapiens, UniProt P14061); assay: Enzymatic assay for type 1 17β-HSD; assay type: biochemical; details: for inhibition at 3 µM: 3 · 10^−6 M, value in square brackets, read-out: Inhibition Type 1 17B-HSD Activity [% Inh. at 3 · 10^−6 M]; for IC50: Table 4′, read-out: Inhibition Type 1 17β-HSD Activity IC50
T1 construct: expressed in transfected cells; host or cells: 293 cells, transient transfection; 100 000×g supernatant (cytosol)
T1 sequence (P14061 1-328): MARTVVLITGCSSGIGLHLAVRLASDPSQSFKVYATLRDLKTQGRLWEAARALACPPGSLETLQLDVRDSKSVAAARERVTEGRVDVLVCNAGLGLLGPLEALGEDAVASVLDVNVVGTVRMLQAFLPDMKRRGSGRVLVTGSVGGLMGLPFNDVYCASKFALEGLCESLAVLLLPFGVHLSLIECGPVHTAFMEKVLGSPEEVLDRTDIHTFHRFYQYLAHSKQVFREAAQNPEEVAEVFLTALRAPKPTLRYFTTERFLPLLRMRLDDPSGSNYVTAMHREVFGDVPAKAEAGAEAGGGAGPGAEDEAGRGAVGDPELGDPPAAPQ
Method: The manner in which IC50 was determined is described in “Efficacy of Preferred Inhibitors: VI. Enzymatic assay for types 1, 2, and 3 17β-HSD and types 1 and 3 3α-HSD”. […] numbers of IC50 are desirable. Blank means that a determination was not done. The % of inhibition at the concentration of 3.10^−6M determined in preliminary screening test is reported in square braquets.
Enzyme sources. 293 cells transiently transfected with expression vectors encoding types 1, 2 and 3 17β-HSD (Luu-The et al., J. Steroid Biochem. Molec. Biol., 55: 581-587, 1995), types 1 and 2 5α-reductase (Luu-The et al., J. Invest. Dermatol., 102: 221-226, 1994) and types 1 and 3 3α-HSD (Dufort et al. Biochem. Biophys. Res. Commun. 228: 474-479, 1996), using the calcium phosphate procedure (Kingston et al., In: Current Protocols in Molecular Biology. Edited by E. M. Ausbel, R. Brent, R. E. Kingston, D. D. Moore, J. G. Seidman, J. A. Smith, K. Struhl. John Wiley & Sons, New York, pp. 9.1.1-9.1.9, 1991; Luu-The et al., J. Invest. Dermatol., 102: 221-226, 1994). For assays using cell subfractions, cells were sonicated in 50 mM sodium phosphate buffer (pH 7.4), containing 20% glycerol and 1 mM EDTA and centrifuged at 10 000×g for 30 min before centrifugation for 100 000×g for 1 h to separate the mitochondrial and microsomal fractions, respectively. The cytosol fractions (100 000×g supernatant) was used to determine type 1 activity while the microsomal fraction (pellet at 100 000×g) was used for measurement of types 2 and 3 17β-HSD activities.
Incubation. The enzymatic reaction was carried out at 37° C. in 1 ml of 50 mM sodium phosphate buffer, pH 7.4, containing 20% glycerol, 1 mM EDTA, and 2 mM cofactors (NADPH or AND^+) for 1 h in the presence of 0.1 μM ^14C-labeled substrate: estrone and 4-dione for types 1 and […] 17β-HSD, respectively, testosterone for type 2 17β-HSD as well as types 1 and 2 5α-reductases, DHT for types 1 and 3 3α-HSD activities, and the indicated concentration of inhibitor.
Extraction of metabolites, migration on TLC and quantification were as described above for the assay of type 5 17β-HSD.

ZR-75-1 cells [2] = assay: Antiestrogenic activity: inhibition of E2-induced proliferation of ZR-75-1 cells; assay type: cell-based, human; set-up: ZR-75-1 Activity, E2 / ZR-75-1 Activity E2 E^−6: unit not given here; details: for ZR-75-1 Activity E2 E^−6: with E2, E^−6
Method: The manner in which the inhibition is determined is described in “Other Tests; C-Estrogenic/Antiestrogenic Activity”. Lower numbers are desirable. ND means that a determination was not done.
(§1) Estrogenic/antiestrogenic activity of some preferred compounds has been measured using the […] human breast cancer cell line as described in more detail below.
(§2) All media and medium supplments were purchased from Sigma. Cells were subcultured weekly by treatment with a pancreatic solution containing EDTA (0.2 g/L). The cell cultures used for the experiments herein describied were between passages 89 and 94.
(§3) Cells in their logarithmic growth phase were harvested, briefly centrifuged, and resuspended in RPMI 1640. Cells were then plated in triplicate in LIMBRO 24-well plastic culture plates (2 cm^2/well). Since plating density influences the effect of hormones on ZR-75-1 cell growth, cells were plated at a density of 1×10^4 cells/well. […] Control cultures received the ethanol vehicle only. Cells were then allowed to grow at 37° C. for 10 days with medium changes (of identical composition) every 2 days.
(§4) After E2 and/or antiestrogen treatment, cells were harvested by addition of 0.5 ml of a pancreatin solution (Sigma) for 5-10 min at 37° C. before addition of 0.5 mnl of RPMI 1640 containing 5% dextran coated […] bovine serum in order to block enzymatic action. Cell number (0.10 ml aliquot) was determined by measurement of DNA content as previously described (Simard et al., Endocrinology 126: 3223-3231,1990).

ZR-75-1 cells [3] = assay: Estrogenic activity: stimulation of proliferation of ZR-75-1 cells; assay type: cell-based, human
Method: […] The manner in which the stimulation is determined is described in “Other Tests; C-Estrogenic/Antiestrogenic activity” Lower numbers are desirable. ND means that a determination was not done.
as §1, §2, §3, §4

[4] = target: T2, human type 2 17β-hydroxysteroid dehydrogenase (Homo sapiens, UniProt P37059); assay: Enzymatic assay for type 2 17β-HSD; assay type: biochemical; details: for IC50: Table 4′, read-out: Inhibition Type 2 17β-HSD Activity IC50
T2 construct: expressed in transfected cells; host or cells: 293 cells, transient transfection; microsomal fraction (100 000×g pellet)
T2 sequence (P37059 1-387): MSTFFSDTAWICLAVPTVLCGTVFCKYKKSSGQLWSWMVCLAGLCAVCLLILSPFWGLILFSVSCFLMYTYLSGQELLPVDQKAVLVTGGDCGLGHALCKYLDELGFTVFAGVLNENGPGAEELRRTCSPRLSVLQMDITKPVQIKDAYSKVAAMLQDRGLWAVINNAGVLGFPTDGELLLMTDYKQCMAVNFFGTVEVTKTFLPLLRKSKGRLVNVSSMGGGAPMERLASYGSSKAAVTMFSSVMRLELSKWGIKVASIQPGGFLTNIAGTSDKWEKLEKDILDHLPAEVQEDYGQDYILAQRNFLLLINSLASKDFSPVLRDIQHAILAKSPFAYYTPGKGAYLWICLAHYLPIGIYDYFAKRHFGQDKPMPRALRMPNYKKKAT
How it was run: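 Enzymes from transiently transfected 293 cells (cytosol for type 1, microsomes for types 2 and 3 17β-HSD) were incubated 1 h at 37° C in pH 7.4 phosphate/20% glycerol with 2 mM NADPH or NAD+ and 0.1 μM 14C-substrate (estrone, 4-dione, or DHT for 3α-HSD); metabolites quantified by TLC; preliminary % inhibition at 3.10^−6M.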

[5] = Table 4′, E2-induced proliferation, 3E^−8

SMILES	inhibition at 3 µM [1] [%]	ZR-75-1 Activity, E2 3E^−8 (ZR-75-1 cells [2]; with E2, 3E^−8)	ZR-75-1 Activity E2 E^−6 (ZR-75-1 cells [2])	ZR-75-1 Activity, Basal E^−6 (ZR-75-1 cells [3])	ZR-75-1 Activity, Basal E^−8 (ZR-75-1 cells [3])	inhibition at 3 µM ([4]; 3 · 10^−6 M, value in square brackets, read-out: Inhibition Type 2 17B-HSD Activity [% Inh. at 3 · 10^−6 M]) [%]	IC50 [1] [µM]	ZR-75-1 Activity, E2 3E^−8 (ZR-75-1 cells [2]; [5])	ZR-75-1 Activity, Basal E^−6 (ZR-75-1 cells [3]; Table 4′) [%]	ZR-75-1 Activity, Basal E^−8 (ZR-75-1 cells [3]; Table 4′) [%]	IC50 [4] [µM]	inhibition at 1 µM (ZR-75-1 cells [2]; Homo sapiens, ZR-75-1, 10^−6 M inhibitor, negative number = stimulation reduced, read-out: percentage of inhibition of E2-induced proliferation of ZR-75-1 cells) [%]
CC12C=CC(=O)C=C1C=CC1C2CCC2(C)C(=O)C3(CCCCC3)CC12 (stereo not drawn) [CS-204]	23	0	−25	0	0	–	–	–	–	–	–	–
CCC[C@@H]1CC2C3C=CC4=CC(=O)CC[C@]4(C)C3CC[C@]2(C)C1=O (stereo partly drawn) [EM-1097]	64	0	0	10	−8	53	–	–	–	–	–	–
CC(C)C[C@@H]1CC2C3C=CC4=CC(=O)CC[C@]4(C)C3CC[C@]2(C)C1=O (stereo partly drawn) [EM-1273-CS]	31	0	−30	0	0	–	–	–	–	–	–	–
CC1(C)CCC2(CCC3C4CCc5cc(OS(C)(=O)=O)ccc5C4CCC32C)OC1=O (stereo not drawn) [EM-1365-CS]	–	–	–	–	–	–	> 10	−17%	0	−17	> 10	–
COCCOc1cc2c(cc1C#N)C1CC[C@@]3(C)C(CC[C@@]34CCC(C)(C)C(=O)O4)C1CC2 (stereo partly drawn) [EM-1396]	–	–	–	–	–	–	> 10	+12%	0	0	> 10	–
COCCOc1cc2c(cc1C(=O)OC)C1CC[C@@]3(C)C(CC[C@@]34CCC(C)(C)C(=O)O4)C1CC2 (stereo partly drawn) [EM-1402-CS, 2-Carbomethoxy-3-(2″-methoxyethyloxy)-1,3,5(10)-estratrien 17(R)-spiro-2′-(5′,5′-dimethyl-6′-oxo)tetrahydropyran]	–	–	–	–	–	–	> 10	0%	−10	0	> 10	61
CC1(C)CC[C@@]2(CCC3C4CCc5cc(C(N)=O)ccc5C4CCC32C)OC1=O (stereo partly drawn) [EM-1404]	–	–	–	–	–	–	> 10	0%	0	0	> 10	–
COCCOc1cc2c(cc1C(N)=O)C1CC[C@@]3(C)C(CC[C@@]34CCC(C)(C)C(=O)O4)C1CC2 (stereo partly drawn) [EM-1424, 2-Carbamoyl-3-(2″-methoxyethyloxy)-1,3,5(10)-estratrien 17(R)-spiro-2′-(5′,5′-dimethyl-6′-oxo)tetrahydropyran]	–	–	–	–	–	–	> 10	−11%	0	0	> 10	–

— patent US6541463B1, “Inhibitors of type 5 and type 3 17β-hydroxysteroid dehydrogenase and methods for their use” (Endorecherche, Inc., priority 1998, dated 2003)
